# Results from patent US20260294770A1, “FORMULATIONS OF NARINGENIN” (DEBUT BIOTECHNOLOGY, INC., priority 2023, published 2026).
# Entries after “also recorded” stand apart in the source; their conditions may differ.
# Columns and labels:
# GDF15 = experiment: Downregulation of gene expression and/or activity, 1% naringenin: GDF15
# Source text: (§1) In certain embodiments, administration of a composition comprising naringenin leads to up-regulation of LCE5A, KRT77, ALOXE3, KRT1, HPGD, MUCL1, CASP14, WFDC12, KRT10, DNASE1L2, IL37, SERPINB12, HAL, UPK1A, CALML5, LCE2B, and/or MIR205. In certain embodiments, administration of a composition comprising naringenin leads to down-regulation of CCL11, CSF2, IL23A, IL11, BMP6, IL13RA2, C2CD4A, NR4A2, C2CD4B, FGF2, FARP4, GDF15, THBS1, HSPA1A, PTGS2, and/or DKK1. Tables 10 and 11 provide data for upregulation and downregulation respectively of certain genes after administration of compositions comprising 1% naringenin.
# Growth differentiation factor 15 (GDF15) plays a role in the inflammatory response. In certain embodiments, downregulation of GDF15 results in reduction in inflammation. In certain embodiments, the administration of composition comprising naringenin results in at least about 2 to about 10-fold downregulation of expression and/or activity of GDF15. In certain embodiments, the administration of composition comprising naringenin results in at least about five (5) fold downregulation of expression and/or activity of GDF15.
# TNFα = TNFα concentration in stimulated (stressed) normal human epidermal keratinocytes (ELISA); type: cell-based; settings: for TNFα concentration: LPS + Poly:IC stressed NHEK, stimulated control 202.6
# Source text: Normal Human Epidermal Keratinocytes (NHEK) were stressed with a cocktail of lipopolysaccharide (LPS) and Polyinosinic-polycytidylic acid sodium salt (Poly:IC), external aggressors capable of inducing an inflammatory response. Stressed cells were subsequently treated with test articles and reduction in inflammatory markers was measuring by ELISA. Tables 19 and 20, provided below, discloses data for TNFα and IL-6 concentrations, respectively, in stressed normal human epidermal keratinocytes.
# DKK1 = experiment: Downregulation of gene expression and/or activity, 1% naringenin: DKK1; settings: negative = downregulation
# Source text: as §1
# PTGS2 = experiment: Downregulation of gene expression and/or activity, 1% naringenin: PTGS2
# Source text: as §1
# Prostaglandin-endoperoxide synthase 2 (PTGS2) plays a role in the production of signaling molecules that are involved in the inflammatory response. For example, PTGS2 is involved in the conversion of arachidonic acid to prostaglandin H2, an important precursor of prostacyclin, which is expressed in inflammation. In certain embodiments, downregulation of PTGS2 leads to reduction in production of signaling molecules leading to inflammation. Thus, the downregulation of PTGS2 leads to reduced inflammation. In certain embodiments, the administration of composition comprising naringenin results in at least about 2 to about 10-fold downregulation of expression and/or activity of PTGS2. […]
# CSF2 = experiment: Downregulation of gene expression and/or activity, 1% naringenin: CSF2
# Source text: as §1
# Granulocyte-macrophage colony-stimulating factor (CSF2) plays a role in inflammation and arthritis. In certain embodiments of the invention, downregulation of CSF2 leads to an anti-inflammatory activity and/or anti-arthritic activity. In certain embodiments, the administration of composition comprising naringenin results in at least about 10 to about 20-fold downregulation of expression and/or activity of CSF2. In certain embodiments, the administration of composition comprising naringenin results in at least about fifteen (15) fold downregulation of expression and/or activity of CSF2.
# [1] = Solubility of naringenin in various solvents; type: physicochemical
# Experimental: The invention recognizes that the solvent used for preparing naringenin compositions should be any solvent acceptable to be used in cosmetic formulations. In certain embodiments of the invention, naringenin is dissolved in a solvent selected from a group consisting of: dimethyl isosorbide, ethoxydiglycol, isopropyl lauryl sarcosinate, pentylene glycol, propanediol, 1,2-hexanediol, and/or butylene glycol. In certain preferred embodiments, naringenin is dissolved in dimethyl isosorbide. In certain embodiments, naringenin is dissolved in isopropyl lauryl sarcosinate. In certain embodiments, naringenin is dissolved in ethoxydiglycol. In certain embodiments, the solvent is a glycol. In certain embodiments, the glycol is selected from a group consisting of pentylene glycol, butylene glycol, and any combination thereof. In certain embodiments, the solvent is selected from a group consisting of: phenylpropanol, 1,2-hexanediol, propanediol, isopentyldiol, 1,2 heptanediol, and any combination thereof.
# Table 1 provides the solubility data for naringenin in several solvents. […]
# UPK1A = experiment: Upregulation of gene expression and/or activity, 1% naringenin: UPK1A
# Source text: as §1
# Uroplakin 1A (UPK1A) is involved in cell proliferation. The proteins in this family mediate signal transduction events that play a role in the regulation of cell development, activation, growth and motility. This encoded protein is found in the asymmetrical unit membrane (AUM) where it can complex with other transmembrane 4 superfamily proteins. UP1A may play a role in normal bladder epithelial physiology, possibly in regulating membrane permeability of superficial umbrella cells or in stabilizing the apical membrane through AUM/cytoskeletal interactions. In certain embodiments, compositions comprising naringenin leads to upregulation of UPK1A, which leads to increase cell proliferation, including the cells in the skin and the underlying tissues. […]
smiles,measurement,setting,value
"O=C1C[C@@H](c2ccc(O)cc2)Oc2cc(O)cc(O)c21 [naringenin, (2S)-5,7-Dihydroxy-2-(4-hydroxyphenyl)-2,3-dihydro-4H-1-benzopyran-4-one]",fold downregulation in expression and/or activity of GDF15,GDF15,~6 fold
same,Fold-increase (downregulation table) GDF15,GDF15; negative = downregulation,−6 fold
same,TNFα concentration,"TNFα; 0.0001% naringenin, p-value 6.99E−07",94.3 pg/mL
same,TNFα concentration,"TNFα; 0.0045% naringenin, p-value 0.002047",43.8 pg/mL
same,TNFα concentration,"TNFα; 0.007% naringenin, p-value 0.002961",70.3 pg/mL
same,TNFα concentration,"TNFα; 0.01% naringenin, p-value 0.004838",104.2 pg/mL
same,inhibition at 0.0001 %,"TNFα; Homo sapiens, NHEK, 0.0001% naringenin, vs stimulated control, p-value 6.99E−07, read-out: TNFα % Reduction vs Treated",53.4%
same,inhibition at 0.0045 %,"TNFα; Homo sapiens, NHEK, 0.0045% naringenin, vs stimulated control, p-value 0.002047, read-out: TNFα % Reduction vs Treated",78.4%
same,inhibition at 0.007 %,"TNFα; Homo sapiens, NHEK, 0.007% naringenin, vs stimulated control, p-value 0.002961, read-out: TNFα % Reduction vs Treated",65.3%
same,inhibition at 0.01 %,"TNFα; Homo sapiens, NHEK, 0.01% naringenin, vs stimulated control, p-value 0.004838, read-out: TNFα % Reduction vs Treated",48.6%
same,Reduction of TNFα (in words),TNFα; stressed keratinocytes,to non-stressed levels
same,Fold-increase (downregulation table) DKK1,DKK1,−5 fold
same,fold downregulation in expression and/or activity of PTGS2,PTGS2,~6 fold
same,Fold-increase (downregulation table) PTGS2,PTGS2; negative = downregulation,−6 fold
same,fold downregulation in expression and/or activity of CSF2,CSF2,~18 fold
same,Solubility (in words),[1]; in Helianthus Annuus (Sunflower) Seed Oil / sunflower oil,insoluble in Helianthus Annuus (Sunflower) Seed Oil; also recorded: not soluble in sunflower oil
same,Solubility (in words),[1]; in water,poorly soluble or insoluble in water
same,Naringenin Solubility,"[1]; solvent: 1,2 heptanediol",2.50 % w/w
same,Naringenin Solubility,"[1]; solvent: 1,2 hexanediol",2.50 % w/w
same,Naringenin Solubility,"[1]; solvent: 1,2 propanediol",0.00 % w/w
same,Naringenin Solubility,"[1]; solvent: 3-methyl-1,3-butanediol",0.00 % w/w
same,Naringenin Solubility,[1]; solvent: Butylene glycol,2.50 % w/w
same,Naringenin Solubility,[1]; solvent: C9-12 alkane,0.00 % w/w
same,Naringenin Solubility,[1]; solvent: C15-19 alkane,0.00 % w/w
same,Naringenin Solubility,[1]; solvent: Capric/caprylic triglyceride,0.00 % w/w
same,Naringenin Solubility,[1]; solvent: Di(propylene glycol) dibenzoate,0.00 % w/w
same,Naringenin Solubility,[1]; solvent: Dimethyl isosorbide,15.00 % w/w
same,Naringenin Solubility,[1]; solvent: Ethoxydiglycol,20.00 % w/w
same,Naringenin Solubility,[1]; solvent: Isoamyl laurate,0.00 % w/w
same,Naringenin Solubility,[1]; solvent: Isopentyldiol,2.50 % w/w
same,Naringenin Solubility,[1]; solvent: Isopropyl lauryol sarcosinate,10.00 % w/w
same,Naringenin Solubility,[1]; solvent: Isopropyl myristate,0.00 % w/w
same,Naringenin Solubility,[1]; solvent: Neopentyl glycol diethylhexanoate,0.00 % w/w
same,Naringenin Solubility,[1]; solvent: Oleyl alcohol,0.00 % w/w
same,Naringenin Solubility,[1]; solvent: Pentylene glycol,2.50 % w/w
same,Naringenin Solubility,[1]; solvent: Phenylpropanol,5.00 % w/w
same,Naringenin Solubility,[1]; solvent: Propanediol,2.50 % w/w
same,Naringenin Solubility,[1]; solvent: Squalene,0.00 % w/w
same,Naringenin Solubility,[1]; solvent: Tri C12-C13 alkyl citrate,0.00 % w/w
same,Naringenin Solubility,[1]; solvent: Tributyl citrate,0.00 % w/w
same,Naringenin Solubility,[1]; solvent: Tributyl-O-acetylcitrate,0.00 % w/w
same,Naringenin Solubility,[1]; solvent: Triethyl O-acetylcitrate,0.00 % w/w
same,Naringenin Solubility,[1]; solvent: Triethyl citrate,0.00 % w/w
same,Naringenin Solubility,[1]; solvent: Triisostearin,0.00 % w/w
same,Naringenin Solubility,[1]; solvent: jojoba oil,0.00 % w/w
same,Naringenin Solubility,[1]; solvent: sunflower oil,0.00 % w/w
same,Fold-increase in expression and/or activity of UPK1A,UPK1A,~10 fold
